Test results taken from ChEMBL document CHEMBL5625252, “Synthesis of peptidomimetics as antibiotic adjuvants for combination with aztreonam to combat MDR Pseudomonas aeruginosa” (Eur J Med Chem, 2023).
Converted amounts (≈) assume the structure as drawn. Where a SMILES comes first, the peptide text is derived from it. The star is where a group is joined. βNA = c1ccc2cc(N*)ccc2c1

Columns and labels:
Pseudomonas aeruginosa [1] = assay: Synergistic antibacterial activity against Pseudomonas aeruginosa 13-35 in CAMH broth medium supplemented with 0.41 to 0.51 mM Mg2+ in presence of aztreonam by checkerboard assay; assay type: functional
Pseudomonas aeruginosa [2] = assay: Synergistic antibacterial activity against Pseudomonas aeruginosa 21-7 assessed as fractional inhibitory concentration index at 128 ug/ml incubated for 18 hrs in presence of aztreonam by checkerboard method; assay type: functional; details: dose 128 µg/ml
Pseudomonas aeruginosa [3] = assay: Synergistic antibacterial activity against Pseudomonas aeruginosa 21-2 assessed as fractional inhibitory concentration index at 128 ug/ml incubated for 18 hrs in presence of aztreonam by checkerboard method; assay type: functional; details: dose 128 µg/ml
Pseudomonas aeruginosa [4] = assay: Synergistic antibacterial activity against Pseudomonas aeruginosa 13-35 in CAMH broth medium supplemented with 20.99 to 21.09 mM Mg2+ in presence of aztreonam by checkerboard assay; assay type: functional
Pseudomonas aeruginosa [5] = assay: Synergistic antibacterial activity against Pseudomonas aeruginosa 21-8 assessed as fractional inhibitory concentration index at 128 ug/ml incubated for 18 hrs in presence of aztreonam by checkerboard method; assay type: functional; details: dose 128 µg/ml
Pseudomonas aeruginosa [6] = assay: Synergistic antibacterial activity against Pseudomonas aeruginosa 23-Y539 assessed as fractional inhibitory concentration index at 128 ug/ml incubated for 18 hrs in presence of aztreonam by checkerboard method; assay type: functional; details: dose 128 µg/ml
Pseudomonas aeruginosa [7] = assay: Synergistic antibacterial activity against Pseudomonas aeruginosa PAO1 assessed as fractional inhibitory concentration index in CAMH broth medium supplemented with 20.99 to 21.09 mM Mg2+ in presence of aztreonam by checkerboard assay; assay type: functional
Pseudomonas aeruginosa [8] = assay: Synergistic antibacterial activity against Pseudomonas aeruginosa 16-11 in CAMH broth medium supplemented with 20.99 to 21.09 mM Mg2+ in presence of aztreonam by checkerboard assay; assay type: functional
Pseudomonas aeruginosa [9] = assay: Antibacterial activity against Pseudomonas aeruginosa 21-8 assessed as inhibition of bacterial growth incubated for 18 hrs by agar dilution method; assay type: functional
Pseudomonas aeruginosa [10] = assay: Synergistic antibacterial activity against Pseudomonas aeruginosa 16-11 assessed as fractional inhibitory concentration index in CAMH broth medium supplemented with 20.99 to 21.09 mM Mg2+ in presence of aztreonam by checkerboard assay; assay type: functional
Pseudomonas aeruginosa [11] = assay: Synergistic antibacterial activity against Pseudomonas aeruginosa 23-Y122 assessed as aztreonam MIC at 128 ug/ml incubated for 18 hrs by checkerboard method; assay type: functional; details: dose 128 µg/ml
Pseudomonas aeruginosa [12] = assay: Antibacterial activity against Pseudomonas aeruginosa PAO1 in CAMH broth medium supplemented with 0.41 to 0.51 mM Mg2+ by checkerboard assay; assay type: functional
Pseudomonas aeruginosa [13] = assay: Synergistic antibacterial activity against Pseudomonas aeruginosa PAO1 assessed as aztreonam MIC at 64 ug/ml incubated for 18 hrs by checkerboard method (reference value: 8 microg/ml); assay type: functional; details: dose 64 µg/ml
Pseudomonas aeruginosa [14] = assay: Synergistic antibacterial activity against Pseudomonas aeruginosa 12-1 assessed as fractional inhibitory concentration index in CAMH broth medium supplemented with 20.99 to 21.09 mM Mg2+ in presence of aztreonam by checkerboard assay; assay type: functional
Pseudomonas aeruginosa [15] = assay: Synergistic antibacterial activity against Pseudomonas aeruginosa 13-3 assessed as fractional inhibitory concentration index at 128 ug/ml incubated for 18 hrs in presence of aztreonam by checkerboard method; assay type: functional; details: dose 128 µg/ml
Pseudomonas aeruginosa [16] = assay: Antibacterial activity against Pseudomonas aeruginosa 23-Y417 assessed as inhibition of bacterial growth incubated for 18 hrs by agar dilution method; assay type: functional
Pseudomonas aeruginosa [17] = assay: Antibacterial activity against Pseudomonas aeruginosa 13-35 in CAMH broth medium supplemented with 0.41 to 0.51 mM Mg2+ by checkerboard assay; assay type: functional
Pseudomonas aeruginosa [18] = assay: Synergistic antibacterial activity against Pseudomonas aeruginosa 19-55 assessed as fractional inhibitory concentration index at 128 ug/ml incubated for 18 hrs in presence of aztreonam by checkerboard method; assay type: functional; details: dose 128 µg/ml
Pseudomonas aeruginosa [19] = assay: Synergistic antibacterial activity against Pseudomonas aeruginosa 13-35 assessed as fractional inhibitory concentration index in CAMH broth medium supplemented with 20.99 to 21.09 mM Mg2+ in presence of aztreonam by checkerboard assay; assay type: functional
Pseudomonas aeruginosa [20] = assay: Synergistic antibacterial activity against Pseudomonas aeruginosa 12-1 assessed as fractional inhibitory concentration index in CAMH broth medium supplemented with 0.41 to 0.51 mM Mg2+ in presence of aztreonam by checkerboard assay; assay type: functional
[21] = Cytotoxicity against human LX2 cells incubated for 24 hrs by MTT assay; assay type: toxicity, cell-based; details: LX-2 cells
Pseudomonas aeruginosa [22] = assay: Synergistic antibacterial activity against Pseudomonas aeruginosa 23-Y417 assessed as fractional inhibitory concentration index at 128 ug/ml incubated for 18 hrs in presence of aztreonam by checkerboard method; assay type: functional; details: dose 128 µg/ml
Pseudomonas aeruginosa [23] = assay: Antibacterial activity against Pseudomonas aeruginosa 16-11 in CAMH broth medium supplemented with 20.99 to 21.09 mM Mg2+ by checkerboard assay; assay type: functional
Pseudomonas aeruginosa [24] = assay: Synergistic antibacterial activity against Pseudomonas aeruginosa 16-11 assessed as fractional inhibitory concentration index at 128 ug/ml incubated for 18 hrs in presence of aztreonam by checkerboard method; assay type: functional; details: dose 128 µg/ml
Pseudomonas aeruginosa [25] = assay: Synergistic antibacterial activity against Pseudomonas aeruginosa 16-2 assessed as fractional inhibitory concentration index at 128 ug/ml incubated for 18 hrs in presence of aztreonam by checkerboard method; assay type: functional; details: dose 128 µg/ml
Pseudomonas aeruginosa [26] = assay: Antibacterial activity against Pseudomonas aeruginosa PAO1 assessed as fractional inhibitory concentration index upto 128 ug/ml incubated for 18 hrs in presence of aztreonam by checkerboard method; assay type: functional; details: dose <= 128 µg/ml
Pseudomonas aeruginosa [27] = assay: Synergistic antibacterial activity against Pseudomonas aeruginosa 23-Y122 assessed as fractional inhibitory concentration index at 128 ug/ml incubated for 18 hrs in presence of aztreonam by checkerboard method; assay type: functional; details: dose 128 µg/ml
Pseudomonas aeruginosa [28] = assay: Antibacterial activity against Pseudomonas aeruginosa K854 overexpressing MexAB-OprM assessed as fractional inhibitory concentration index upto 128 ug/ml incubated for 18 hrs in presence of aztreonam by checkerboard method; assay type: functional; details: dose <= 128 µg/ml
Pseudomonas aeruginosa [29] = assay: Synergistic antibacterial activity against Pseudomonas aeruginosa PAO1 assessed as fractional inhibitory concentration index incubated for 18 hrs in presence of aztreonam by checkerboard method; assay type: functional
Pseudomonas aeruginosa [30] = assay: Synergistic antibacterial activity against Pseudomonas aeruginosa PAO1 in CAMH broth medium supplemented with 20.99 to 21.09 mM Mg2+ in presence of aztreonam by checkerboard assay; assay type: functional
Pseudomonas aeruginosa [31] = assay: Antibacterial activity against Pseudomonas aeruginosa 12-1 in CAMH broth medium supplemented with 0.41 to 0.51 mM Mg2+ by checkerboard assay; assay type: functional
Pseudomonas aeruginosa [32] = assay: Synergistic antibacterial activity against Pseudomonas aeruginosa PAO1 assessed as fractional inhibitory concentration index at 128 ug/ml incubated for 18 hrs in presence of aztreonam by checkerboard method; assay type: functional; details: dose 128 µg/ml
Pseudomonas aeruginosa [33] = assay: Antibacterial activity against Pseudomonas aeruginosa 12-1 in CAMH broth medium supplemented with 20.99 to 21.09 mM Mg2+ by checkerboard assay; assay type: functional
Pseudomonas aeruginosa [34] = assay: Synergistic antibacterial activity against Pseudomonas aeruginosa 13-35 assessed as fractional inhibitory concentration index at 128 ug/ml incubated for 18 hrs in presence of aztreonam by checkerboard method; assay type: functional; details: dose 128 µg/ml
[35] = Cytotoxicity against HEK293 cells incubated for 24 hrs by MTT assay; assay type: toxicity, cell-based; details: human
Pseudomonas aeruginosa [36] = assay: Synergistic antibacterial activity against Pseudomonas aeruginosa 13-35 assessed as fractional inhibitory concentration index in CAMH broth medium supplemented with 0.41 to 0.51 mM Mg2+ in presence of aztreonam by checkerboard assay; assay type: functional

Row | SMILES | MIC (Pseudomonas aeruginosa [1]) | fractional inhibitory concentration index (FICI) (Pseudomonas aeruginosa [2]) | fractional inhibitory concentration index (FICI) (Pseudomonas aeruginosa [3]) | MIC (Pseudomonas aeruginosa [4]) | fractional inhibitory concentration index (FICI) (Pseudomonas aeruginosa [5]) | fractional inhibitory concentration index (FICI) (Pseudomonas aeruginosa [6]) | fractional inhibitory concentration index (FICI) (Pseudomonas aeruginosa [7]) | MIC (Pseudomonas aeruginosa [8]) | MIC (Pseudomonas aeruginosa [9]) | fractional inhibitory concentration index (FICI) (Pseudomonas aeruginosa [10]) | MIC (Pseudomonas aeruginosa [11]) | MIC (Pseudomonas aeruginosa [12]) | MIC (Pseudomonas aeruginosa [13]) | fractional inhibitory concentration index (FICI) (Pseudomonas aeruginosa [14]) | fractional inhibitory concentration index (FICI) (Pseudomonas aeruginosa [15]) | MIC (Pseudomonas aeruginosa [17]) | fractional inhibitory concentration index (FICI) (Pseudomonas aeruginosa [18]) | fractional inhibitory concentration index (FICI) (Pseudomonas aeruginosa [19]) | fractional inhibitory concentration index (FICI) (Pseudomonas aeruginosa [20]) | CC50 at 24 h [21] | also measured
1 | N=C(N)NCCC[C@H](NC(=O)[C@@H](N)Cc1ccccc1)C(=O)Nc1ccc2ccccc2c1 [PABETAN] (H-Phe-Arg-βNA) | 128 µg/mL | 0.5 | 0.5 | 128 µg/mL | 0.5 | 0.313 | 0.5 | 128 µg/mL | 512 µg/mL (≈ 1150 µM) | 1.25 | 16 µg/mL | 512 µg/mL | 2 µg/mL | 1.25 | 0.375 | 512 µg/mL | 0.313 | 0.375 | 1.25 | > 100 µM | MIC (Pseudomonas aeruginosa [16]; read-out: MIC): 512 µg/mL (≈ 1150 µM); fractional inhibitory concentration index (FICI) (Pseudomonas aeruginosa [22]): 0.5; MIC (Pseudomonas aeruginosa [23]): 512 µg/mL; fractional inhibitory concentration index (FICI) (Pseudomonas aeruginosa [24]): 0.5; fractional inhibitory concentration index (FICI) (Pseudomonas aeruginosa [25]): 0.5; fractional inhibitory concentration index (FICI) (Pseudomonas aeruginosa [26]): <0.375; fractional inhibitory concentration index (FICI) (Pseudomonas aeruginosa [27]): 0.75; fractional inhibitory concentration index (FICI) (Pseudomonas aeruginosa [28]): <0.75; fractional inhibitory concentration index (FICI) (Pseudomonas aeruginosa [29]): 0.375; MIC (Pseudomonas aeruginosa [30]): 128 µg/mL; MIC (Pseudomonas aeruginosa [31]): 512 µg/mL; fractional inhibitory concentration index (FICI) (Pseudomonas aeruginosa [32]): 0.5; MIC (Pseudomonas aeruginosa [33]): 512 µg/mL; fractional inhibitory concentration index (FICI) (Pseudomonas aeruginosa [34]): 0.375; CC50 at 24 h [35]: > 100 µM; fractional inhibitory concentration index (FICI) (Pseudomonas aeruginosa [36]): 0.5
2 | NCCC[C@H](NC(=O)C[C@@H](N)Cc1ccccc1)C(=O)Nc1ccc2ccccc2c1 | 128 µg/mL | 0.5 | <0.5 | 128 µg/mL | <0.5 | 0.313 | 0.375 | 128 µg/mL | > 512 µg/mL | 1.25 | 32 µg/mL | 512 µg/mL | 2 µg/mL | 1.25 | 0.375 | 512 µg/mL | 0.313 | 0.5 | 1.25 | > 100 µM | MIC (Pseudomonas aeruginosa [16]): > 512 µg/mL; fractional inhibitory concentration index (FICI) (Pseudomonas aeruginosa [22]): <0.5; MIC (Pseudomonas aeruginosa [23]): 512 µg/mL; fractional inhibitory concentration index (FICI) (Pseudomonas aeruginosa [24]): 0.5; fractional inhibitory concentration index (FICI) (Pseudomonas aeruginosa [25]): 0.5; fractional inhibitory concentration index (FICI) (Pseudomonas aeruginosa [26]): <0.375; fractional inhibitory concentration index (FICI) (Pseudomonas aeruginosa [27]): 1.25; fractional inhibitory concentration index (FICI) (Pseudomonas aeruginosa [28]): <0.5; fractional inhibitory concentration index (FICI) (Pseudomonas aeruginosa [29]): 0.375; MIC (Pseudomonas aeruginosa [30]): 128 µg/mL; MIC (Pseudomonas aeruginosa [31]): 512 µg/mL; fractional inhibitory concentration index (FICI) (Pseudomonas aeruginosa [32]): 0.5; MIC (Pseudomonas aeruginosa [33]): 512 µg/mL; fractional inhibitory concentration index (FICI) (Pseudomonas aeruginosa [34]): 0.375; CC50 at 24 h [35]: > 100 µM; fractional inhibitory concentration index (FICI) (Pseudomonas aeruginosa [36]): 0.5
